Values quoted from earlier work as cited in patent US20080146664A1, “Method for treating diseases caused by accumulation of body fat” (priority 2006, published 2008).

Conditions: addition of conjugated linoleic acid

Substance: conjugated linoleic acid
- lipodystrophy-like symptoms (fatty liver, splenic hypertrophy, disappearance of brown fat): generated
- pattern of adipose tissue decrease: partial decrease in adipose tissue
- significant decrease in the parametrial adipose tissue: not observed
- significant decrease in the weight of the liver: not observed
